Source: US10752647B2, “N-phosphonoxymethyl prodrugs of hydroxyalkyl thiadiazole derivatives” (DAIICHI SANKYO COMPANY, LIMITED, priority 2017, dated 2020)
In brackets after ≈: the same amount, converted by molar mass. Like-named read-outs stand apart in the source and are kept apart here.

Key:
[1] = Solubility of parent compounds and prodrugs in phosphate buffer; assay type: physicochemical; conditions: aqueous buffer, thermodynamic from solid, 25° C., more than 4 weeks, pH 7.0
Procedure: Parent compounds: About 5 mg of parent compounds (biologically active forms of prodrugs) were added to 950 μL of phosphate buffer, and mixed vigorously for 1 hour at 25° C. Then, these samples were stored at 25° C. for more than 4 weeks and filtered to remove undissolved parent compounds. Next, these solutions were diluted with 50% aqueous acetonitrile solution. The resulting test solutions were assayed by HPLC. Prodrugs: About 30 mg of prodrugs were added to 120 μL of phosphate buffer, and mixed vigorously for 1 hour at 25° C. After shaking, pH of these solutions were adjusted at pH 7.0 by 1 mol/L NaOH solution. Then, the total volume were adjusted to 280 μL with purified water. Next, these solutions were stored at 25° C. for more than 4 weeks and filtered to remove undissolved compounds. These solutions were diluted with 50% aqueous acetonitrile solution. The resulting test solutions were assayed by HPLC.

[2] = Solubility in Japanese Pharmacopeia First Fluid (JP1) and Second Fluid (JP2); assay type: physicochemical; conditions: thermodynamic from solid, room temperature
Procedure: Method of Testing Solubility in Water and Neutral Buffer A 10 mmol/L solution of the test compound was prepared in DMSO and dispensed 100 μL of 10 mmol/L DMSO stock solutions into labeled glass tubes in duplicate, one for Japanese Pharmacopeia First Fluid (JP1) and second for Japanese Pharmacopeia Second Fluid (JP2). After evaporation of DMSO from each tube, 500 μL of JP1 and JP2 fluid were added in each tube, respectively. These tubes were sonicated for 1 minute and placed on shaker for 30 minutes with an interval of 30 seconds at every 5 minute. Tubes were placed in dark at room temperature for 1 hour and solution was filtered through membrane filter. The filtrate was diluted 2-fold and 10-fold. The resulting test solutions was analyzed and quantified against the standards using UPLC (standard preparation-10 mmol/L solution in DMSO is serially diluted with 50% aqueous acetonitrile solution to prepare 2 solutions; 100 μmol/L standard solution and 5 μmol/L standard solutions).

[3] = prodrug, phosphate buffer adjusted with NaOH
[4] = pH 1.2, simulated gastric fluid, Japanese Pharmacopeia First Fluid (JP1), read-out: Solubility JP1
[5] = pH 6.8, aqueous buffer, Japanese Pharmacopeia Second Fluid (JP2), read-out: Solubility JP2
[6] = parent compound, phosphate buffer

SMILES | solubility [1, 3] | solubility at 30 min [2, 4] | solubility at 30 min [2, 5] | solubility [1, 6]
CCc1c(Cl)nc(C(=O)N[C@@H]2CCN(c3nnc([C@](C)(O)CO)s3)C[C@@H]2OC)n1COP(=O)(O)O [Compound No. 3, (4-Chloro-2-{[(3S,4R)-1-{5-[(2R)-1,2-dihydroxypropan-2-yl]-1,3,4-thiadiazol-2-yl}-3-methoxypiperidin-4-yl]carbamoyl}-5-ethyl-1H-imidazol-1-yl)methyl dihydrogen phosphate] | 107 mg/mL | > 1.35 mg/mL | > 1.32 mg/mL | –
CCc1[nH]c(C(=O)N[C@@H]2CCN(c3nnc([C@@H](O)CO)s3)C[C@@H]2OC)nc1Cl [Compound B, 4-chloro-N-[(3S,4R)-1-{5-[(1S)-1,2-dihydroxyethyl]-1,3,4-thiadiazol-2-yl}-3-methoxypiperidin-4-yl]-5-ethyl-1H-imidazole-2-carboxamide] | – | – | – | 0.38 mg/mL (≈ 882 µM)
CCc1c(Cl)nc(C(=O)N[C@@H]2CCN(c3nnc([C@H](O)CO)s3)C[C@@H]2OC)n1COP(=O)(O)O [Compound No. 7, (4-Chloro-2-{[(3S,4R)-1-{5-[(1R)-1,2-dihydroxyethyl]-1,3,4-thiadiazol-2-yl}-3-methoxypiperidin-4-yl]carbamoyl}-5-ethyl-1H-imidazol-1-yl)methyl dihydrogen phosphate] | 107 mg/mL | – | – | –
CCc1nc(C(=O)N[C@@H]2CCN(c3nnc([C@H](C)O)s3)C[C@@H]2OC)n(COP(=O)(O)O)c1Cl [Compound No. 6, (5-Chloro-4-ethyl-2-{[(3S,4R)-1-{5-[(1S)-1-hydroxyethyl]-1,3,4-thiadiazol-2-yl}-3-methoxypiperidin-4-yl]carbamoyl}-1H-imidazol-1-yl)methyl dihydrogen phosphate] | 104 mg/mL | – | – | –
CCc1c(Cl)nc(C(=O)N[C@@H]2CCN(c3nnc([C@H](C)O)s3)C[C@@H]2OC)n1COP(=O)(O)O [Compound No. 5, (4-Chloro-5-ethyl-2-{[(3S,4R)-1-{5-[(1S)-1-hydroxyethyl]-1,3,4-thiadiazol-2-yl}-3-methoxypiperidin-4-yl]carbamoyl}-1H-imidazol-1-yl)methyl dihydrogen phosphate] | 101 mg/mL | – | – | –
CCc1nc(C(=O)N[C@@H]2CCN(c3nnc([C@](C)(O)CO)s3)C[C@@H]2OC)n(COP(=O)(O)O)c1Cl [Compound No. 4, (5-Chloro-2-{[(3S,4R)-1-{5-[(2R)-1,2-dihydroxypropan-2-yl]-1,3,4-thiadiazol-2-yl}-3-methoxypiperidin-4-yl]carbamoyl}-4-ethyl-1H-imidazol-1-yl)methyl dihydrogen phosphate] | 102 mg/mL | > 1.28 mg/mL | > 1.51 mg/mL | –
CCc1nc(C(=O)N[C@@H]2CCN(c3nnc([C@H](O)CO)s3)C[C@@H]2OC)n(COP(=O)(O)O)c1Cl [Compound No. 8, (5-Chloro-2-{[(3S,4R)-1-{5-[(1R)-1,2-dihydroxyethyl]-1,3,4-thiadiazol-2-yl}-3-methoxypiperidin-4-yl]carbamoyl}-4-ethyl-1H-imidazol-1-yl)methyl dihydrogen phosphate] | 102 mg/mL | – | – | –
CCc1nc(C(=O)N[C@@H]2CCN(c3nnc([C@@H](O)CO)s3)C[C@@H]2OC)n(COP(=O)(O)O)c1Cl [Compound No. 10, (5-Chloro-2-{[(3S,4R)-1-{5-[(1S)-1,2-dihydroxyethyl]-1,3,4-thiadiazol-2-yl}-3-methoxypiperidin-4-yl]carbamoyl}-4-ethyl-1H-imidazol-1-yl)methyl dihydrogen phosphate] | 105 mg/mL | – | – | –
CCc1[nH]c(C(=O)N[C@@H]2CCN(c3nnc([C@](C)(O)CO)s3)C[C@@H]2OC)nc1Cl [Compound A, 4-chloro-N-[(3S,4R)-1-{5-[(2R)-1,2-dihydroxypropan-2-yl]-1,3,4-thiadiazol-2-yl}-3-methoxypiperidin-4-yl]-5-ethyl-1H-imidazole-2-carboxamide] | – | – | – | 0.775 mg/mL (≈ 1740 µM)
